Data taken from article PMC5446775, “Interactions of 172 plant extracts with human organic anion transporter 1 (SLC22A6) and 3 (SLC22A8): a study on herb-drug interactions” (PeerJ, 2017).
Where “and” joins values, the source holds several entries; their conditions need not be identical. Equal values may be shown once.

Assays:
[1] = target: T1, hOAT3 (Homo sapiens, UniProt Q8TCC7); assay: Inhibition of 6-CF uptake in HEK-OAT3 cells (screening at 5 μg/ml and concentration-dependent inhibition); format: cell-based; set-up: Invitrogen (Flp-In system, cells); 6-CF uptake OAT3, Figure 2 raw data (single replicates) / OAT3-mediated 6-CF uptake (Inhibitory effects of butanol extracts on OAT-mediated 6-CF), raw replicate values / OAT3-mediated 6-CF uptake (Inhibitory effects of aqueous extracts on OAT-mediated 6-CF), raw replicate values: unit not given here
T1 sequence (Q8TCC7 1-542): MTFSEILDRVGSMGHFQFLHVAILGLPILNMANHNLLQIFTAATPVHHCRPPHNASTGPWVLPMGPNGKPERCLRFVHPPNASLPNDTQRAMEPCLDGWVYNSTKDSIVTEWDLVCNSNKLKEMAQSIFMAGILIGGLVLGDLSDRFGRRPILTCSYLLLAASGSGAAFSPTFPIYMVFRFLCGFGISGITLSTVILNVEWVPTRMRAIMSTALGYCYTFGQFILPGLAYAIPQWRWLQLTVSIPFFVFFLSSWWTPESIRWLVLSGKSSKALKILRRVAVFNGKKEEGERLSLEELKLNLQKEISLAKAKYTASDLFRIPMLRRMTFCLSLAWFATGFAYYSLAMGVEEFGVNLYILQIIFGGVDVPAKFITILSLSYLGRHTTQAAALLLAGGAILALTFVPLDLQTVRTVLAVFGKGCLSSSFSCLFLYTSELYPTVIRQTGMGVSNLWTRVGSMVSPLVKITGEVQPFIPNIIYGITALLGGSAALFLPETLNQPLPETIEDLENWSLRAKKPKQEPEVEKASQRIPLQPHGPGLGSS
Method: The stock solutions of plant extracts were prepared using DMSO with a final concentration of 1 mg/ml. The initial concentration for each extract was set at 5 μg∕ml. Every well contained the same concentration of DMSO (0.5%) to eliminate the potential effect of solvent. […] Before the initial screening, the reproducibility of uptake experiments was evaluated. […] Due to the large number of samples, for the initial screening study, each uptake experimental sample was measured in triplicates in the same assay.
After the uptake was terminated at 4 min and 10 min for OAT1 and OAT3 respectively, intracellular fluorescence was determined as above.

[2] = Pharmacokinetics of furosemide in rats with and without Juncus effusus extract; format: in vivo; details: FS 10 mg/kg i.v. alone
Method: Male Sprague–Dawley (SD) rats (200–220 g) were obtained from Vital River Laboratories (Beijing, China), and housed in the certified animal facility at the Institute of Radiation Medicine of the Chinese Academy of Medical Sciences (CAMS, Tianjin, China). […] Rats were acclimated for 1 week in a temperature controlled room (23 ± 2 °C), with a relative humidity of 55 ± 10%. Food and water were supplied ad libitum. The rats were fasted for 12-h before the experiment. […] For the control group, a same volume of 40% PEG400 was administered to the rats at 5 min before the injection of a same volume of saline. […] Plasma sample (250 μl) was pipetted into a microcentrifuge tube, and 1 ml acetonitrile (containing 40 μg∕ml warfarin as internal standard) was added. […] The supernatant was dried in vacuum and then was reconstituted in 200 μL mobile phase for HPLC injection.
The analytical column was a ZORBAX SB-C18 columm (4.6 × 150 mm, 5 µm; Agilent, Santa Clara, CA, USA) with a precolumn. The mobile phase was a mixture of acetonitrile and distilled water (69:31, v/v) with 0.3 M sodium acetate buffer (pH 5.0). The column temperature is 30 °C with a flow rate of 1 ml/min. The injection volume was 10 μl, and the detection wavelength was set at 280 nm.
For the pharmacokinetics, five rats per group were used. […] Data were analyzed with two-tailed unpaired Student’s t-test. […]

SMILES | 6-CF fluorescence of cells (fluorescence images) ([1]; HEK-OAT3, co-incubation with probenecid 30 μM) | OAT3-mediated 6-CF uptake (Inhibitory effects of aqueous extracts on OAT-mediated 6-CF), raw replicate values ([1]; aqueous extracts, screening at 5 μg/ml, HEK-OAT3 cells, three replicate columns, Control about 100, Prob = positive control) | OAT3-mediated 6-CF uptake (Inhibitory effects of butanol extracts on OAT-mediated 6-CF), raw replicate values ([1]; butanol extracts, screening at 5 μg/ml, HEK-OAT3 cells, three replicate columns, Control about 100, Prob = positive control) | 6-CF uptake OAT3, Figure 2 raw data (single replicates) ([1]; probenecid 30 μM positive control, 6-CF 4 μM, 10 min, HEK-OAT3) | Clobs of FS [2] | V z_obs of FS [2]
CCCN(CCC)S(=O)(=O)c1ccc(C(=O)O)cc1 [probenecid, Probenecid] | almost completely abolished | 2.375 and 2.144 and 0.9311 | 2.375 and 2.144 and 0.9311 | 2.375 and 2.144 and 0.9311 | – | –
NS(=O)(=O)c1cc(C(=O)O)c(NCc2ccco2)cc1Cl [FS, furosemide] | – | – | – | – | 1.0 ± 1.0 L/min/kg × 10^−3 | 146.9 ± 12.1 L/kg ×10^−3
